According to patent US4526890A, “3,6,7,8-Substituted-s-triazolo[4,3-b]pyridazines as bronchodilators” (The Dow Chemical Company, priority 1981, dated 1985):
Structures can show the parent of a compound that is named as a salt.

What was measured:
[1] = tested on: histamine-induced bronchoconstriction; assay: Bronchodilator activity in the Konzett-Rossler guinea pig preparation (histamine-induced bronchoconstriction); type: in vivo; parameters: key to Histamine Blockade: % blockade = 100 − (post-dose response / mean of 3 prior) × 100; settings: for percent blockade of histamine / percent of aminophylline activity: 3 mg/kg intravenously; for percent blockade of histamine: 2 minutes prior to histamine; for Histamine Blockade: table 7, intravenous, 3 mg/kg except as otherwise indicated, aminophylline 10 mg/kg; for percent of aminophylline activity: aminophylline 10 mg/kg for comparison, histamine agonist
Protocol: Bronchodilator activity of representative triazolopyridazine compounds of the invention is examined in the Konzett-Rossler quinea pig preparation according to accepted procedures. See Knozett and Rossler; Arch. f. Exp. Path. u. Pharmakol. […] Int. Pharmacodyn. […] In this procedure an anesthetized guinea pig is artificially respired with a fixed volume of air. The volume of air is selected to slightly exceed the capacity of the guinea pig's lungs, and the excess air or "overflow" is measured. Test compounds are evaluated by administering a test compound intravenously 2 minutes prior to administration of an agonist compound (histamine, serotonin or acetylcholine) following 3 previous agonist doses resulting in relatively uniform (±10 percent) bronchoconstriction. […] This is calculated by dividing the "overflow" agonist response measured after administration of the test compound by the average of the 3 preceding agonist responses, multiplying by 100 and subtracting this value from 100 percent.

[2] = 30 minute LD50 (acute toxicity without sound); settings: mouse, in vivo, ip
Protocol: (§1) The interaction of sound with the convulsive threshold of drugs is a known phenomenon which can be used to evaluate such side effects. […] In a procedure for pharmacological evaluation, the lowering of the convulsive threshold, or the lowering of the LD50, by sound can be studied in mice.
(§2) In the test operations, mice are administered a test compound by intraperitoneal injection at various dosages, and the number of mice showing tonic convulsions and the number of fatalities occurring within 30 minutes is recorded.

[3] = Audiogenic convulsive side effects (sound challenge: tonic convulsions and fatalities); settings: mouse, ip
Protocol: as §1, §2
The sound exposure is carried out by placing the mice in a sound insulated cage with a bell which emits 120 decibels of sound, and activating the bell for two minutes. The number of tonic convulsions and fatalities are then recorded to determine the ED50 and LD50 in the presence of the sound challenge.

histamine aerosol = assay: Histamine aerosol exposure (collapse time); type: in vivo, guinea pigs; settings: Cavia porcellus, ip, 2 h, challenged two hours after intraperitoneal injection; collapse time > mean + two SD of controls
Protocol: In another procedure, test compounds were administered to guinea pigs by intraperitoneal injection and the guinea pigs were challenged two hours later by exposure to a histamine aerosol. Untreated animals collapse when exposed to the histamine aerosol. […] The ED50 's of representative compounds are set out in the following table.

SMILES	Histamine Blockade [1]	LD50 at 0.5 h [2] [mg/kg]	LD50 ([3]; in vivo) [mg/kg]	TD50 [3] [mg/kg]	other results
Cc1cc2nnc(C)n2nc1N1CCCCC1 [3,7-dimethyl-6-piperidino-s-triazolo[4,3-b]pyridazine]	48	327	327	260	percent blockade of histamine [1]: 48%
Cc1nnc2c3c(c(N4CCOCC4)nn12)CCCC3 [6-Morpholino-3-methyl-7,8-tetramethylene-s-triazolo[4,3-b]pyridazine]	61	149	126	90	selectivity ratio ([3]; in vivo): ~1.18
c1nnc2c3c(c(N4CCOCC4)nn12)CCCC3 [6-Morpholino-7,8-tetramethylene-s-triazolo[4,3-b]pyridazine]	–	–	–	–	percent blockade of histamine [1]: 75%; percent of aminophylline activity [1]: 113%; selectivity ratio ([3]; in vivo): 3.8
Cc1nnc2c3c(c(N4CCCCC4)nn12)CCCC3 [6-Piperidino-3-methyl-7,8-tetramethylene-s-triazolo[4,3-b]pyridazine]	38	139	139	125	–
Cc1c(N2CCCC2)nn2cnnc2c1C [7,8-Dimethyl-6-pyrrolidino-s-triazolo[4,3-b]pyridazine]	62	277	277	–	percent blockade of histamine [1]: 65%; percent of aminophylline activity [1]: 67%; TD50 ([3]; in vivo): 277 mg/kg
Cc1cc2nncn2nc1N1CCOCC1 [7-Methyl-6-morpholino-s-triazolo[4,3-b]pyridazine]	–	327	280	45	bronchodilator activity ([1]; in words): desirable bronchodilator activity
Cc1nnc2c3c(c(N4CCCN(C)CC4)nn12)CCCC3 [44 (dihydrochloride)]	–	–	–	–	ED50 (histamine aerosol): 23.8 mg/kg
Cn1c(=O)c2[nH]cnc2n(C)c1=O [Aminophylline, reference compound]	–	–	–	–	inhibition in vivo at 10 mg/kg ([1]; Cavia porcellus, iv, read-out: Histamine Blockade): 37%
Cc1cc2nncn2nc1N1CCCC1 [Example 3, 7-methyl-6-pyrrolidino-s-triazolo[4,3-b]pyridazine]	43	272	176	141	–
Cc1cc2nncn2nc1N1CCN(C)CC1 [Example 4, 7-Methyl-6-N-methylpiperazino-s-triazolo[4,3-b]pyridazine]	39	272	140	–	percent blockade of histamine [1]: 39%; TD50 ([3]; in vivo): 116 mg/kg
CN1CCN(c2nn3cnnc3c3c2C2CCC3C2)CC1 (stereo not shown) [Example 5, 7,8,9,10-tetrahydro-6-[4-methyl-1-piperazinyl)-7,10-methano(1,2,4)triazolo[3,4-a]phthalazine]	92	175	147	147	–
Cc1nnc2c3c(c(N4CCOCC4)nn12)C1CCC3C1 (stereo not shown) [Example 6, 7,8,9,10-tetrahydro-3-methyl-6-(4-morpholinyl)-7,10-methano(1,2,4)triazolo[3,4-a]phthalazine]	76	86	74	61	–
c1nnc2c3c(c(N4CCCC4)nn12)C1CCC3C1 (stereo not shown) [Example 7]	87	136	100	93	–
c1nnc2c3c(c(N4CCCCC4)nn12)C1CCC3C1 (stereo not shown) [Example 8]	84	108	98	90	–
Cc1nnc2c3c(c(N4CCCC4)nn12)C1CCC3C1 (stereo not shown) [Example 10]	95	85	85	85	–
Cc1nnc2c3c(c(N4CCN(C)CC4)nn12)C1CCC3C1 (stereo not shown) [Example 13]	97	147	147	–	TD50 ([3]; in vivo): 147 mg/kg

SMILES	Histamine Blockade [1]	LD50 at 0.5 h [2] [mg/kg]	LD50 ([3]; in vivo) [mg/kg]	TD50 [3] [mg/kg]	other results
c1nnc2c3c(c(N4CCCC4)nn12)C1CCC3CC1 [Example 15]	66	136	117	117	–
c1nnc2c3c(c(N4CCOCC4)nn12)C1CCC3CC1 [Example 17]	58	118	85	62	–
Cc1nnc2c3c(c(N4CCCC4)nn12)C1CCC3CC1 [Example 18]	55	141	141	–	TD50 ([3]; in vivo): 141 mg/kg
CN1CCN(c2nn3cnnc3c3c2C2CCC3CC2)CC1 [Example 21]	82	147	147	113	–
Cc1nnc2c3c(c(N4CCN(C)CC4)nn12)C1CCC3CC1 [Example 23]	90	147	147	–	TD50 ([3]; in vivo): 147 mg/kg
c1nnc2c3c(c(N4CCCC4)nn12)CCCC3 [Example 24, 6-(1-pyrrolidinyl)-7,8,9,10-tetrahydro(1,2,4)triazolo[3,4-a]phthalazine]	86	191	170	150	percent blockade of histamine [1]: 100%; percent of aminophylline activity [1]: 105%
c1nnc2c3c(c(N4CCCCC4)nn12)CCCC3 [Example 25, 6-piperidino-7,8-tetramethylene-s-triazolo[4,3-b]pyridazine]	72	298	298	283	–
CN1CCN(c2nn3cnnc3c3c2CCCC3)CC1 [Example 27, 6-(4-methyl-1-piperazinyl)-7,8-tetramethylene(1,2,4)triazolo[4,3-b]pyridazine]	91	147	134	134	–
c1nnc2c3c(c(N4CCCCCC4)nn12)CCCC3 [Example 29, 6-(hexahydro-1H-azepin-1-yl)-7,8-tetramethylene(1,2,4)triazolo[4,3-b]pyridazine]	–	–	–	–	ED50 (histamine aerosol): 5 mg/kg
CC1CCCN1c1nn2cnnc2c2c1CCCC2 (stereo not shown) [Example 30, 6-(2-methylpyrrolidinyl)-7,8-tetramethylene(1,2,4)triazolo[4,3-b]pyridazine]	–	–	–	–	ED50 (histamine aerosol): 1.6 mg/kg
CNc1nn2cnnc2c2c1CCCC2 [Example 31]	–	–	–	–	ED50 (histamine aerosol): 4 mg/kg
CN(C)c1nn2cnnc2c2c1CCCC2 [Example 32]	–	–	–	–	ED50 (histamine aerosol): 2.5 mg/kg
Cc1c(N2CCCCC2)nn2c(C)nnc2c1C [R7 Methyl; R3 CH3; R8 CH3; R6 Piperidino, 6-Piperidino-3,7,8-trimethyl-s-triazolo[4,3-b]pyridazine]	30	141	141	–	TD50 ([3]; in vivo): 141 mg/kg
Cc1c(N2CCOCC2)nn2cnnc2c1C [R7 Methyl; R3 H; R8 CH3; R6 Morpholino, 6-Morpholino-7,8-dimethyl-s-triazolo[4,3-b]pyridazine]	46	272	272	–	TD50 ([3]; in vivo): 272 mg/kg
Cc1c(N2CCCCC2)nn2cnnc2c1C [R7 Methyl; R3 H; R8 CH3; R6 Piperidino, 6-Piperidino-7,8-dimethyl-s-triazolo[4,3-b]pyridazine]	45	404	404	–	TD50 ([3]; in vivo): 404 mg/kg
